In one assay the target is T1, MAGL (Mus musculus, UniProt O35678).
T1 sequence (O35678 1-303): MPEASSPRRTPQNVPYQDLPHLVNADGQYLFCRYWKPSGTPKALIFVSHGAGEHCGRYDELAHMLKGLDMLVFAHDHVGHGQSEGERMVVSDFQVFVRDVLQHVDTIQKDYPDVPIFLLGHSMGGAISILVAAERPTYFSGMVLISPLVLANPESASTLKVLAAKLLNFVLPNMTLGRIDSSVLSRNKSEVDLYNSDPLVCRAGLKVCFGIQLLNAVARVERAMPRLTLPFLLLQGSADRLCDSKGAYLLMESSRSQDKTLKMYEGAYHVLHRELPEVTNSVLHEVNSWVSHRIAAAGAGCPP
In words: In vitro competitive activity-based protein profiling, MAGL, mouse. As to conditions: read-out: MAGL % inh. 1 μM (mouse).

The next assay concerns the target T2, FAAH (Mus musculus, UniProt O08914).
T2 sequence (O08914 1-579): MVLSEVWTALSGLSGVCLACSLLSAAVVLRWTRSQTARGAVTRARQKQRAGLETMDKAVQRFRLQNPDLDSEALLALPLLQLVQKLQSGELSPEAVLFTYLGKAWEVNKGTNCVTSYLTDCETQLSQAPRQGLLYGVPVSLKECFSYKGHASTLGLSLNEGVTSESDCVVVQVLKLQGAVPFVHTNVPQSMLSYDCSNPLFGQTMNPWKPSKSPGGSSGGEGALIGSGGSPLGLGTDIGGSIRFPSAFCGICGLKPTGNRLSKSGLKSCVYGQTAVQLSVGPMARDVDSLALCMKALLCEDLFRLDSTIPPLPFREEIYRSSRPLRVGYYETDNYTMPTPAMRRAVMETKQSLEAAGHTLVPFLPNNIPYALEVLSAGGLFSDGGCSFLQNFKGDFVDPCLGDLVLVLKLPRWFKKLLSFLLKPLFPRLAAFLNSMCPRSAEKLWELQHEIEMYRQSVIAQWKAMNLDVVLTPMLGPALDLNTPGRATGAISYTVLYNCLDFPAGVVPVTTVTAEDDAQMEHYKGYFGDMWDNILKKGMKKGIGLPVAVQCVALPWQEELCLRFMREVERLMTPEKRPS
In words: In vitro competitive activity-based protein profiling, FAAH, mouse. The conditions noted are these: read-out: FAAH % inh. 1 μM (mouse).

A value given as a limit tells only on which side of the number the result lay.

`NC(=O)c1ccn(C(=O)N2CC3CN(Cc4cc(Cl)ccc4Cl)CC3C2)n1` (stereo not shown) [Example 202, 1-(5-(2,5-dichlorobenzyl)octa-hydropyrrolo[3,4-c]pyrrole-2-carbonyl)-1H-pyrazole-3-carboxamide]: the inhibition at 1 µM at MAGL and at FAAH was more than 75% each time.
As to `CN(Cc1ccccc1C(F)(F)F)[C@@H]1C[C@@H]2CN(C(=O)n3ccc(C(N)=O)n3)C[C@@H]2C1` [Example 204, 1-(cis-5-(methyl(2-(trifluoromethyl)benzyl)amino)octa-hydrocyclopenta[c]pyrrole-2-carbonyl)-1H-pyrazole-3-carboxamide], the inhibition at 1 µM at MAGL and on FAAH was more than 75% throughout.
As to `NC(=O)c1ccn(C(=O)N2CCN(Cc3cccc(Oc4ccccc4)c3)CC2)n1` [Example 198, 1-(4-(3-phenoxybenzyl)pi-perazine-1-carbonyl)-1H-pyrazole-3-carboxamide], the inhibition at 1 µM on MAGL and on FAAH was more than 75% throughout.
For the molecule `O=C(O)c1ccn(C(=O)N2CC3CN(Cc4ccc(Cl)cc4)CC3C2)n1` (stereo not shown) [Example 183, 1-(5-(4-chlorobenzyl)octa-hydropyrrolo[3,4-c]pyrrole-2-carbonyl)-1H-pyrazole-3-carboxylic acid], the inhibition at 1 µM at MAGL and on FAAH was 25 to 50% throughout.
In the case of `O=C(O)c1ccn(C(=O)N2CC3CN(Cc4ccc(C(F)(F)F)cc4)CC3C2)n1` (stereo not shown) [Example 96, 1-(5-(4-(trifluoromethyl)benzyl)octahydro-pyrrolo[3,4-c]pyrrole-2-carbonyl)-1H-pyrazole-3-carboxylic acid], the inhibition at 1 µM at MAGL was more than 75%; at FAAH, 25 to 50%.
For `NC(=O)c1ccn(C(=O)N2CC3CN(Cc4cc(Cl)cc(C(F)(F)F)c4)CC3C2)n1` (stereo not shown) [Example 201, 1-(5-(3-chloro-5-(trifluoromethyl)benzyl)octahydro-pyrrolo[3,4-c]pyrrole-2-carbonyl)-1H-pyrazole-3-carboxamide], in that order: more than 75% and more than 75%.
The like results for `NC(=O)c1ccn(C(=O)N2CC3CN(Cc4ccc(N5CCOCC5)cc4C(F)(F)F)CC3C2)n1` (stereo not shown) [Example 17, 1-(5-(4-Morpholino-2-(trifluoromethyl)benzyl)octahydropyrrolo[3,4-c]pyrrole-2-carbonyl)-1H-pyrazole-3-carboxamide] were, in that order, more than 75% and more than 75%.
For `CN(Cc1ccccc1Cl)[C@H]1C[C@@H]2CN(C(=O)n3ccc(C(=O)O)n3)C[C@@H]2C1` [Example 184, 1-(trans-5-((2-chlorobenzyl) (methyl)amino)octa-hydrocyclopenta[c]pyrrole-2-carbonyl)-1H-pyrazole-3-carboxylic], in that order: 0 to 25% and 25 to 50%.
Take `O=C(O)c1ccn(C(=O)N2CCN(Cc3cccc(Oc4ccccc4)c3)CC2)n1` [Example 2, 1-(4-(3-phenoxybenzyl)piperazine-1-carbonyl)-1H-pyrazole-3-carboxylic Acid]: the inhibition at 1 µM on MAGL was more than 75%; on FAAH, 25 to 50%.
Take `CN(Cc1ccccc1Cl)[C@H]1C[C@@H]2CN(C(=O)n3ccc(C(N)=O)n3)C[C@@H]2C1` [Example 200, 1-(trans-5-((2-chlorobenzyl) (methyl)amino)octa-hydrocyclopenta[c]pyrrole-2-carbonyl)-1H-pyrazole-3-carboxamide]: the inhibition at 1 µM on MAGL and at FAAH was more than 75% in each case.
As to `O=C(O)c1ccn(C(=O)N2CCC(Oc3cccc(Cl)c3N3CCCC3)CC2)n1` [Example 13, 1-(4-(3-Chloro-2-(pyrrolidin-1-yl)phenoxy)piperidine-1-carbonyl)-1H-pyrazole-3-carboxylic Acid], the inhibition at 1 µM is more than 75% at MAGL and 0 to 25% at FAAH.

(Values after patent US10266497B2 (ABIDE THERAPEUTICS, INC., priority 2017, dated 2019).)
